In PubChem BioAssay AID1996:
Converted amounts (≈) assume the structure as drawn.

Details: buffer; pH 7.4; 200.0 µM

SMILES | solubility kinetic
CN1CCC(N(C)S(=O)(=O)c2ccc(Cl)cc2)CC1 | > 45.4 µg/mL
CC1=C(C)CC(C(=O)NCc2c(F)cccc2Cl)C(C(=O)O)C1 (centres undefined) | > 51 µg/mL
Cc1ccc(SCCOCCN2CC(C)OC(C)C2)cc1.Cl (centres undefined) | 42.5 µg/mL
COc1ccc(CC(=O)OCC(=O)Nc2cc(Cl)ccc2C)cc1 | 7 µg/mL (≈ 20.1 µM)
Cc1cccc(C)c1NC(=O)C(C)N1CCCC1 (centres undefined) | > 37 µg/mL
CC1CC(C)CN(CC(=O)N2CCOCC2)C1.Cl (centres undefined) | > 41.5 µg/mL
COC(=O)C1CCN(c2ccc([N+](=O)[O-])cc2[N+](=O)[O-])CC1 | > 46.4 µg/mL
O=C(NCCCn1ccnc1)c1cc2c(s1)CCCC2 | > 43.4 µg/mL
COc1ccc(CC(=O)N2CCN(c3ccccc3)CC2)cc1 | 31.7 µg/mL (≈ 102 µM)
O=C(NCC(=O)N1CCOCC1)OCc1ccccc1 | > 41.7 µg/mL
Cc1cc(C(=O)NC2CCCC2)c2ccccc2n1 | > 38.1 µg/mL
Cc1cc(/C=C(\C#N)C(=O)Nc2ccccc2F)c(C)[nH]1 | 0.8 µg/mL (≈ 2.82 µM)
COc1ccc(NC(C)=O)cc1C#N | 24.5 µg/mL (≈ 129 µM)
O=c1[nH]c2ccccc2n2c(C(F)(F)F)nnc12 | > 38.1 µg/mL
COc1ccc2[nH]c(C(=O)N3CCN(Cc4ccccc4)CC3)cc2c1OC | 51.8 µg/mL (≈ 137 µM)
CCOC(=O)CNc1nc(Cl)nc(Nc2ccc(C)cc2)n1 | 0.5 µg/mL (≈ 1.55 µM)
COc1ccc2c(c1)nc(SCC(O)c1ccccc1)n2C (centres undefined) | 41.3 µg/mL (≈ 131 µM)
CCOc1ccc(NC(=S)NCc2nc3ccccc3[nH]2)cc1 | 46.6 µg/mL (≈ 143 µM)
COc1ccc(NS(=O)(=O)c2cc(NC(=O)COc3ccccc3)ccc2N2CCOCC2)cc1 | 3.1 µg/mL (≈ 6.23 µM)
CC(=O)Oc1ccc(C(=O)NCc2ccc3c(c2)OCO3)cc1 | 29.1 µg/mL (≈ 92.9 µM)
O=C(O)COCC(=O)N1CCN(C(c2ccccc2)c2ccccc2)CC1 | > 55.3 µg/mL
CC(NC(=O)c1cc2ccccc2oc1=O)c1ccccc1 (centres undefined) | 3.8 µg/mL (≈ 13 µM)
COc1ccccc1CC(=O)Nc1ncc(C)s1 | 8.4 µg/mL (≈ 32 µM)
O=C(Nc1ccccc1F)NC1CCCCCCC1 | 6.9 µg/mL (≈ 26.1 µM)

SMILES | solubility kinetic
O=S1(=O)CCN(Cc2ccccc2C(F)(F)F)CC1 | > 44 µg/mL
Cc1onc(-c2ccccc2Cl)c1C(=O)N(C)Cc1ccccc1 | > 51.1 µg/mL
CN(Cc1ccc(F)cc1)Cc1nc(-c2ccccc2)no1 | 4.4 µg/mL (≈ 14.8 µM)
CCOc1ccc(C(=O)NCc2ccco2)cc1Cl | 34.5 µg/mL (≈ 123 µM)
COc1ccc(NC(=O)c2cccnc2N2CCOCC2)cc1 | > 47 µg/mL
Fc1ccc(CNCCc2ccc3c(c2)OCO3)cc1 | 31.1 µg/mL (≈ 114 µM)
CN(C(=O)CSc1cc(Cl)ccc1Cl)C1CCS(=O)(=O)C1 (centres undefined) | 53.7 µg/mL (≈ 146 µM)
Cc1ccc(CCC(=O)Nc2ccc(N(C)C)cc2)o1 | 17.5 µg/mL (≈ 64.3 µM)
CSc1ccc(NC(=O)NCc2ccccc2)cc1 | 1.4 µg/mL (≈ 5.14 µM)
CC(OC(=O)c1cccnc1Cl)C(=O)NCc1ccccc1 (centres undefined) | > 47.8 µg/mL
Cc1cc(C)c2nc(C)cc(Nc3ccc(C(=O)N(C)C)cc3)c2c1 | 5.6 µg/mL (≈ 16.8 µM)
c1ccc(N2CCN(c3nc4ccccc4[nH]3)CC2)nc1 | 41.7 µg/mL (≈ 149 µM)
Cn1c(SCc2ccc([N+](=O)[O-])cc2)nnc1-c1ccncc1 | > 49.1 µg/mL
Cc1sc2ncnc(N(C)C3CCCCC3)c2c1C | 1.1 µg/mL (≈ 3.99 µM)
CC(C)C(C(=O)NC1=NCCS1)c1ccc(Cl)cc1 (centres undefined) | 1.7 µg/mL (≈ 5.73 µM)
CC(=O)Nc1ccc(S(=O)(=O)N(C)C2CCN(C)CC2)cc1 | > 48.8 µg/mL
Cc1c(NC(=O)C(C)C)cccc1-c1nc2ncccc2o1 | > 44.3 µg/mL
CCOC(=O)C1=C(C)NC(C)=C(C(=O)OCC)C1c1ccc(C)o1 | 1.8 µg/mL (≈ 5.4 µM)
Cc1ccc(-c2c(C)sc3nc[nH]c(=O)c23)cc1C | 39.7 µg/mL (≈ 147 µM)
COc1ccc(-c2nc(C)ncc2-c2ccc(Cl)cc2)c(O)c1 | < 0.3 µg/mL
CCCn1c(N)c(C(=O)COC(=O)/C=C/c2ccc(OC(F)F)c(OC)c2)c(=O)[nH]c1=O | 9 µg/mL (≈ 19.9 µM)
CCCCCC(O)(CCN1CCCCC1)c1ccc(OCC)cc1.Cl (centres undefined) | 53.5 µg/mL
CCC(C)CCCCNC1=NCCS1 (centres undefined) | > 32.2 µg/mL
O=C(Cc1ccccc1)N1CCN(CCCc2ccccc2)CC1.O=C(O)C(=O)O | > 61.9 µg/mL

SMILES | solubility kinetic
CN1CCN(S(=O)(=O)c2cccc(C(=O)Nc3cccc([N+](=O)[O-])c3)c2)CC1 | 59.7 µg/mL (≈ 148 µM)
COc1cc(SC)ccc1C(=O)Nc1nc(C)cc(C)n1 | 40.7 µg/mL (≈ 134 µM)
O=C(CN1C(=O)NC2(CCCCCC2)C1=O)c1ccc(F)cc1 | > 47.8 µg/mL
CCN(/C(N)=N/c1nc(C)cc(C)n1)c1ccccc1 | > 40.4 µg/mL
O=C(OCC(=O)N1CCOCC1)c1ccc(O)cc1 | 31 µg/mL (≈ 117 µM)
CC(C)(C)NC(=O)C(=O)NCc1ccccn1 | > 35.3 µg/mL
CCOC(=O)C(=O)Nc1ccccc1C(=O)OC | > 37.7 µg/mL
CC(C)NC(=S)N1CCC(Cc2ccccc2)CC1 | 24.4 µg/mL (≈ 88.3 µM)
CC(=O)NC(CC(=O)N1CCN(C(C)=O)CC1)c1ccccc1 (centres undefined) | > 47.6 µg/mL
CC(C)(C)C(=O)CSc1ncccn1 | 24.3 µg/mL (≈ 116 µM)
COc1cccc(N2C(=O)CN(Cc3ccccc3)C2=S)c1 | 24.9 µg/mL (≈ 79.7 µM)
O=C(Nc1ccc(Nc2ccccc2)cc1)Nc1ccccc1Cl | < 0.2 µg/mL
OC(CN1CCCCC1)Cn1c2ccccc2c2ccccc21 (centres undefined) | 45.1 µg/mL (≈ 146 µM)
COC(=O)Cn1c2ccc(C)cc2c2nc3ccccc3nc21 | < 0.2 µg/mL
Cc1ccc(C2NC(=NCc3ccccc3)Nc3nc(C)cc(=O)n32)cc1 (centres undefined) | 13.1 µg/mL (≈ 36.4 µM)
COc1ccccc1NC(=O)Nc1ccccc1C#N | 24.8 µg/mL (≈ 92.8 µM)
OC1/C(=C/c2ccccc2F)N2CCC1CC2 (centres undefined) | > 35 µg/mL
CN(C)C(=O)C#Cc1ccccc1 | > 26 µg/mL
COc1ccccc1NC(=O)CC(c1ccc(F)cc1)c1ccco1 (centres undefined) | 21.2 µg/mL (≈ 62.5 µM)
C#CCN1C(=O)S/C(=C\c2ccc(-c3ccc(C(=O)O)cc3C)o2)C1=O | 35 µg/mL (≈ 95.3 µM)
CCOc1cc(N2CCOCC2)c(OCC)cc1NC(=O)c1ccc(OC)c(S(=O)(=O)N2CCOCC2)c1 | 45.2 µg/mL (≈ 82.2 µM)
O=C1OC(C(=O)NCc2ccccc2)Cc2ccccc21 (centres undefined) | 39 µg/mL (≈ 139 µM)
Cc1ccc(OCC(=O)Nc2ccc3c(c2)CCC3)c([N+](=O)[O-])n1 | 2.1 µg/mL (≈ 6.42 µM)
O=C(CNC(=O)c1ccc2ccccc2c1)NCc1ccccc1F | 7.8 µg/mL (≈ 23.2 µM)

SMILES | solubility kinetic
O=C(C1COc2ccccc2O1)N1CCCCC1 (centres undefined) | > 37.1 µg/mL
COc1cc(/C=C2/CC(C)OC2=O)c([N+](=O)[O-])cc1OC (centres undefined) | > 44 µg/mL
CC(C)(C)C(=O)CN1C(=O)NC2(CCc3ccccc32)C1=O (centres undefined) | > 45.1 µg/mL
Fc1ccccc1OCCn1c(=S)[nH]c2ccccc21 | 6 µg/mL (≈ 20.8 µM)
CC(NC(=O)c1cccs1)c1ccccc1 (centres undefined) | > 34.7 µg/mL
CCOc1ccc(NC(=O)c2cc(=O)[nH]c3ccccc23)cc1 | 1.3 µg/mL (≈ 4.22 µM)
COc1ccccc1C(=O)Nc1sc2c(c1C(N)=O)CCCC2 | < 0.4 µg/mL
O=C(NOCc1ccccc1)c1ccc(Cl)cc1Cl | 36.4 µg/mL (≈ 123 µM)
COc1cccc2cc(/C(=N/O)c3ccc(Br)cc3)oc12 | < 0.7 µg/mL
CNC(=O)c1c(O)c2cccc3c2n(c1=O)CCC3 | 2.6 µg/mL (≈ 10.1 µM)
CC(=O)N1CCc2cc(S(=O)(=O)Nc3ccc(C)cc3)ccc21 | 3.6 µg/mL (≈ 10.9 µM)
COCCCNC(=O)c1ccccc1-c1cc(C)no1 | 32.6 µg/mL (≈ 119 µM)
CCN(CC(=O)Nc1c(F)cccc1F)C(=O)CSc1ccc(F)cc1 | > 57.4 µg/mL
CC(C)CN1CCNC(=O)C1CC(=O)N(C)CC1CCOCC1 (centres undefined) | 45.7 µg/mL (≈ 140 µM)
CCN1C(=O)C(=O)N(Cc2ccc(OC)c(F)c2)C1=O | 40.4 µg/mL (≈ 144 µM)
O=C(O)C1C2CCC(O2)C1C(=O)Nc1ccc(F)c(F)c1 (centres undefined) | 40.5 µg/mL (≈ 136 µM)
CSc1ncc(Cl)c(C(=O)Nc2cccc(Cl)c2)n1 | 1.1 µg/mL (≈ 3.5 µM)
COc1cccc(N2CCN(c3nc(C)c(C)c(=O)[nH]3)CC2)c1 | 25.9 µg/mL (≈ 82.4 µM)
Cc1cc(C)nc(NC(=O)c2ccc(Br)cc2)n1 | > 45.9 µg/mL
CN(C)CCOC1c2ccccc2CCc2ccc3ccccc3c21.O=C(O)C(=O)O (centres undefined) | > 63.2 µg/mL
CC(C)(C)NC(=O)/C(=C\c1ccco1)NC(=O)c1ccco1 | > 45.3 µg/mL
COc1ccccc1C(=O)NCCC(=O)N1CCCC(C(F)(F)F)C1 (centres undefined) | 52.3 µg/mL (≈ 146 µM)
CCCCc1ccc(NC(=O)Cn2c(=O)c(N3CCCCC3)c(N)n(C)c2=O)cc1 | 26.6 µg/mL (≈ 64.3 µM)
Cc1ccc2oc(C(=O)N(Cc3ccccc3)C3CCS(=O)(=O)C3)c(C)c2c1 (centres undefined) | 1.6 µg/mL (≈ 4.03 µM)

SMILES | solubility kinetic
COC(=O)c1cc(S(=O)(=O)Nc2ccc(C)cn2)c[nH]1 | 43.9 µg/mL (≈ 149 µM)
CCCNC(=O)c1ccc(COc2ccc(CCC)cc2OC)o1 | > 49.7 µg/mL
O=C(c1cc2ccccc2o1)N1CCN(c2ccccn2)CC1 | 11.4 µg/mL (≈ 37.1 µM)
CC(=O)Nc1ccc(NC(=O)C(C)OC(=O)[C@@H]2CCCN2C(=O)c2cccs2)cc1 (some centres undefined) | > 64.4 µg/mL
COc1ccc(N(C)S(=O)(=O)c2cccc(C(=O)OCC(=O)N3CC(C)CC(C)C3)c2)cc1 (centres undefined) | 7.3 µg/mL (≈ 15.4 µM)
Cc1ccc2c(C(=O)CN3CC(C)CC(C)C3)c(C)[nH]c2c1 (centres undefined) | 38.6 µg/mL (≈ 129 µM)
COc1ccc(C(=O)NCCc2c[nH]c3ccccc23)cc1OC | 32 µg/mL (≈ 98.6 µM)
O=C(NC(=O)c1ccccc1)Nc1ccc(Cl)cn1 | < 0.2 µg/mL
CCCn1c(O)c(N=N)c2ccccc21 | > 30.5 µg/mL
CC(NC(=O)CN1C(=O)NC2(CCCCCCC2)C1=O)c1ccccc1 (centres undefined) | > 53.6 µg/mL
CCNC(=S)Nc1ccc(OCc2nc3ccccc3s2)cc1 | 2.8 µg/mL (≈ 8.15 µM)
O=c1oc2ccccc2nc1/C=C(\O)c1ccccc1 | 21.4 µg/mL (≈ 80.7 µM)
O=C(OCC(=O)C12CC3CC(CC(C3)C1)C2)c1ccccn1 | > 44.9 µg/mL
Cc1cc(Cl)nc(-c2ccccc2O)n1 | < 0.2 µg/mL
COc1ccc(CCC(=O)Nc2nc(C)c(C(=O)N(C)C)s2)cc1 | 41.3 µg/mL (≈ 119 µM)
N#C/C(=C/Nc1ccccc1F)S(=O)(=O)c1ccc(Cl)cc1 | 2.1 µg/mL (≈ 6.24 µM)
CC(C)Oc1ccc(C(=O)NCC(=O)O)cc1 | > 35.6 µg/mL
Cc1c(C(=O)NCc2ccccc2F)oc2ccccc12 | 1.5 µg/mL (≈ 5.29 µM)
CCN(CC(=O)Nc1ccc2c(c1)OCCO2)CC(=O)Nc1ccc(C)c([N+](=O)[O-])c1 | 7 µg/mL (≈ 16.3 µM)
O=C(Nc1ccc2[nH]c(=O)[nH]c2c1)c1ccc([N+](=O)[O-])o1 | 15.6 µg/mL (≈ 54.1 µM)
CN(C)S(=O)(=O)c1cccc(C(=O)c2nccn2C)c1 | 41.5 µg/mL (≈ 141 µM)
Cc1sc2nc[nH]c(=O)c2c1-c1ccc(F)cc1 | 4.8 µg/mL (≈ 18.4 µM)
Cc1cc(=O)[nH]c(SCC(=O)NCC2CCCO2)n1 (centres undefined) | > 42.5 µg/mL
